From ChEMBL document CHEMBL5143695, “Benzobis(imidazole) derivatives as STAT3 signal inhibitors with antitumor activity” (Bioorg Med Chem, 2022)
Active and inactive are the calls of the source. The rule behind the calls is not given here.

Key:
[1] = test system: HepG2; experiment: Induction of apoptosis in human HepG2 cells assessed as necrotic cells at 5 uM incubated for 48 hrs by Annexin V/PI staining based flow cytometry method (reference value: 0.57%); assay type: functional
[2] = Cytotoxicity against HEK-Blue IL-6 cells; assay type: toxicity, cell-based; conditions: human
[3] = target: Signal transducer and activator of transcription 3 (Homo sapiens) (UniProt P40763); experiment: Inhibition of STAT3 phosphorylation at Y705 residue in human HepG2 cells measured after 16 hrs by Western blotting analysis; assay type: cell-based; conditions: dose 2.5-20 µM, DDE = dose-dependent effect
Signal transducer and activator of transcription 3 (Homo sapiens), sequence (P40763 whole entry): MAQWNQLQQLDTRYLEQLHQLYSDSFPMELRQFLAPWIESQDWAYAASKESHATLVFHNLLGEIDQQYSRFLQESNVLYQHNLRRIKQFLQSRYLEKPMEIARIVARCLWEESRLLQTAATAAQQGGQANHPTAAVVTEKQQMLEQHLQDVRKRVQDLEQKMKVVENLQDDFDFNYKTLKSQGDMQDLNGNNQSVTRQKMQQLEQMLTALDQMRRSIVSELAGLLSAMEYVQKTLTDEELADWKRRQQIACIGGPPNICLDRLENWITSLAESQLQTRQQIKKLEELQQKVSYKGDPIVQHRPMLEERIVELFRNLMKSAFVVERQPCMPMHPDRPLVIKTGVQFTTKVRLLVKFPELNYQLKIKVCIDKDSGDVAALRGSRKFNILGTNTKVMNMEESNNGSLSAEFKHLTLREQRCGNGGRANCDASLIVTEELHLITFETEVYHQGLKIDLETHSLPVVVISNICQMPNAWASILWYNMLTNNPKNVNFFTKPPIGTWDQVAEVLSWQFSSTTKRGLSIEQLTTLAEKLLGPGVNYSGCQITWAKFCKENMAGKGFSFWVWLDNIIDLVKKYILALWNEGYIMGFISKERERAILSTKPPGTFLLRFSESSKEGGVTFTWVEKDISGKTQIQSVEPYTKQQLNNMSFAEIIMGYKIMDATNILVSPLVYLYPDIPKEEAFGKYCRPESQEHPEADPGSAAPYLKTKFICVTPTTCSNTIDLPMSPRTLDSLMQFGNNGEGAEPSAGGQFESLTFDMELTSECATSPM

[4] = target: Signal transducer and activator of transcription 3 (Homo sapiens) (UniProt P40763); experiment: Inhibition of STAT3 phosphorylation at Y705 residue in human EC109 cells measured after 16 hrs by Western blotting analysis; assay type: cell-based; conditions: dose 2.5-20 µM, DDE = dose-dependent effect
[5] = target: Signal transducer and activator of transcription 3 (Homo sapiens) (UniProt P40763); experiment: Inhibition of STAT3 dimerization in human HepG2 cells assessed as increase in STAT3 monomer expression at 5 to 10 uM incubated for 24 hrs by DSS crosslink assay; assay type: cell-based; conditions: dose 5-10 µM
[6] = target: Signal transducer and activator of transcription 3 (Homo sapiens) (UniProt P40763); experiment: Inhibition of IL-6 induced STAT3 phosphorylation at Tyr705 residue in human HepG2 cells preincubated for 16 hrs followed by IL-6 stimulation for 30 mins by Western blot analysis; assay type: cell-based; conditions: dose 2.5-20 µM, DDE = dose-dependent effect
[7] = target: Signal transducer and activator of transcription 3 (Homo sapiens) (UniProt P40763); experiment: Inhibition of IL-6 induced STAT3 phosphorylation at Tyr705 residue in human EC109 cells preincubated for 16 hrs followed by IL-6 stimulation for 30 mins by Western blot analysis; assay type: cell-based; conditions: dose 2.5-20 µM, DDE = dose-dependent effect
[8] = test system: HepG2; experiment: Induction of apoptosis in human HepG2 cells assessed as early apoptotic cells at 5 uM incubated for 48 hrs by Annexin V/PI staining based flow cytometry method (reference value: 3.31%); assay type: functional
[9] = test system: HepG2; experiment: Induction of apoptosis in human HepG2 cells assessed as necrotic cells at 10 uM incubated for 48 hrs by Annexin V/PI staining based flow cytometry method (reference value: 0.57%); assay type: functional
[10] = test system: HepG2; experiment: Induction of apoptosis in human HepG2 cells assessed as viable cells at 20 uM incubated for 48 hrs by Annexin V/PI staining based flow cytometry method (reference value: 92.5%); assay type: functional; conditions: read-out: Activity
[11] = test system: HepG2; experiment: Induction of apoptosis in human HepG2 cells assessed as necrotic cells at 20 uM incubated for 48 hrs by Annexin V/PI staining based flow cytometry method (reference value: 0.57%); assay type: functional
[12] = test system: ECa-109 cell line; experiment: Induction of apoptosis in human EC109 cells assessed as necrotic cells at 5 uM incubated for 48 hrs by Annexin V/PI staining based flow cytometry method (reference value: 0.73%); assay type: functional
[13] = test system: ECa-109 cell line; experiment: Induction of apoptosis in human EC109 cells assessed as viable cells at 10 uM incubated for 48 hrs by Annexin V/PI staining based flow cytometry method (reference value: 91.7%); assay type: functional; conditions: read-out: Activity
[14] = test system: ECa-109 cell line; experiment: Induction of apoptosis in human EC109 cells assessed as late apoptotic cells at 10 uM incubated for 48 hrs by Annexin V/PI staining based flow cytometry method (reference value: 6.17%); assay type: functional
[15] = test system: ECa-109 cell line; experiment: Induction of apoptosis in human EC109 cells assessed as downregulation of MCL-1 protein expression by Western blotting analysis; assay type: functional, cell-based; conditions: dose 2.5-20 µM, DDE = dose-dependent effect
[16] = test system: ECa-109 cell line; experiment: Induction of cell cycle arrest in human EC109 cells assessed as accumulation of cells at G0/G1 phase incubated for 24 hrs by flow cytometric analysis (reference value: 49.86%); assay type: functional
[17] = test system: ECa-109 cell line; experiment: Inhibition of cell migration in human EC109 cells incubated for 48 hrs by microscopic analysis based wound healing assay; assay type: functional; conditions: dose 5-10 µM, DDE = dose-dependent effect
[18] = test system: HepG2; experiment: Antitumor activity against human HepG2 cells xenografted in BALB/c athymic nude mouse assessed as tumor growth inhibition at 20 mg/kg, ip administered daily for 24 days relative to control; assay type: functional; conditions: HepG2, 576 h, time 24 day, read-out: TGI
[19] = test system: HepG2; experiment: Antitumor activity against human HepG2 cells xenografted in BALB/c athymic nude mouse assessed as decrease in STAT3 phosphorylation at Y705 residues at 20 to 40 mg/kg, ip administered daily for 24 days; assay type: functional, organism-based; conditions: dose 20-40 mg/kg, time 24.0 day

## CCCn1c(-c2cccc(OC)c2)nc2cc3nc(-c4cccc(OC)c4)n(CCC)c3cc21
[1]
  Activity: 1.54%
[2]
  IC50: > 10 µM
[3]
  inhibition: Dde
[4]
  inhibition: Dde
[5]
  inhibition: Active
[6]
  inhibition: Dde
[7]
  inhibition: Dde
[8]
  Activity: 8.44%
[9]
  Activity: 1.49%
[10]
  viability at 20 µM: 17.3%
[11]
  Activity: 0.91%
[12]
  Activity: 0.87%
[13]
  viability at 10 µM: 70.5%
[14]
  Activity: 17.2%
[15]
  Activity: Dde
[16]
  Activity: 58.73%
[17]
  inhibition: Dde
[18]
  inhibition in vivo at 20 mg/kg: 42.5%
[19]
  Activity: Active
